Measured values published in ChEMBL document CHEMBL1201862, “PubChem BioAssay data set” (2004).
Calls of active or inactive are those of the source.

Tests used:
[1] = viability of uninfected HEp-2 cells – cell-based, HTS, cytotoxicity control for RSV inhibitor project, dose response (AID 2410); type: functional; details: human respiratory syncytial virus
[2] = molecular target: T1, Short transient receptor potential channel 4 (Mus musculus, UniProt Q9QUQ5); assay: block of DAMGO-driven TRPC4 calcium entry – cell-based, HEK293 TRPC4/mu-opioid, Fluo-4 calcium, dose response (AID 434942); type: functional;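 note: potency of inhibitors blocking the TRPC4 calcium response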
T1 sequence (Q9QUQ5 whole entry): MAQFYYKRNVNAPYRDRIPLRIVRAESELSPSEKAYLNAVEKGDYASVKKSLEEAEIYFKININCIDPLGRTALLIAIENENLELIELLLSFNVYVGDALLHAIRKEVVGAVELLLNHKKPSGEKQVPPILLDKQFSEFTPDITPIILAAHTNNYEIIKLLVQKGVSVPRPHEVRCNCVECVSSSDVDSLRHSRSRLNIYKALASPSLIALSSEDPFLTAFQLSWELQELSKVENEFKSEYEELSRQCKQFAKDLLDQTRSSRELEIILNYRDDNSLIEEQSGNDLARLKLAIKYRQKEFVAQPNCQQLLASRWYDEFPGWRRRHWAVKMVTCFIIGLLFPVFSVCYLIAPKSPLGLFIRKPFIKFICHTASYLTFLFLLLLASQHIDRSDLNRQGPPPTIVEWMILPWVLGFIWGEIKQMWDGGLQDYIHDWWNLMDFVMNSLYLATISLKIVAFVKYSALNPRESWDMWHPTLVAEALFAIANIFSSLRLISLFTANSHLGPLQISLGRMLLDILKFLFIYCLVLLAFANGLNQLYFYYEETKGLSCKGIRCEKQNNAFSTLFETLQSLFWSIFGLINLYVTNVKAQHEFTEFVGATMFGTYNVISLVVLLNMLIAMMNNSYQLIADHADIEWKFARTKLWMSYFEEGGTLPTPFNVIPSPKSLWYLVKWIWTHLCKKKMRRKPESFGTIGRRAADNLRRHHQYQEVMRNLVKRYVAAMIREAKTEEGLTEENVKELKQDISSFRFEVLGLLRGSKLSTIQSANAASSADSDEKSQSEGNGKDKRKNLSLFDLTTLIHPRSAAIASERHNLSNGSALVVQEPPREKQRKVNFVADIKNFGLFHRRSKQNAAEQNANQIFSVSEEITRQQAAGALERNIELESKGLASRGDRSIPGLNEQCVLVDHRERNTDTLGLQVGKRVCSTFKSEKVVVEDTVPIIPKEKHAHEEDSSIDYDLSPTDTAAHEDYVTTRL

[3] = molecular target: DNA dC->dU-editing enzyme APOBEC-3A (Homo sapiens, UniProt P31941); assay: A3A deaminase inhibition for selectivity – biochemical, dose response (AID 504722); type: functional
[4] = molecular target: DNA dC->dU-editing enzyme APOBEC-3G (Homo sapiens, UniProt Q9HC16); assay: Dose Response confirmation of small molecule APOBEC3G DNA Deaminase Inhibitors via a fluorescence-based single-stranded DNA deaminase assay. [Related pubchem assays (depositor defined):AID493012, AID493028]; type: functional
SUMO-activating enzyme = SUMO-activating enzyme (Homo sapiens, UniProt Q9UBT2); assay: blockers of UBC9-mediated SUMO conjugation – biochemical, AlphaScreen, SUMOylation inhibitor project, confirmation (AID 2018); type: functional
Trypsin = Trypsin (Sus scrofa, UniProt P00761); assay: trypsin protease activity blockade – biochemical, quenched peptide fluorescence, cherry-pick, selectivity assay for Rce1 protease inhibitor project, dose response (AID 488789)
CAAX prenyl protease 2 = molecular target: T2, CAAX prenyl protease 2 (Saccharomyces cerevisiae S288c, UniProt Q03530); type: biochemical
T2 sequence (Q03530 whole entry): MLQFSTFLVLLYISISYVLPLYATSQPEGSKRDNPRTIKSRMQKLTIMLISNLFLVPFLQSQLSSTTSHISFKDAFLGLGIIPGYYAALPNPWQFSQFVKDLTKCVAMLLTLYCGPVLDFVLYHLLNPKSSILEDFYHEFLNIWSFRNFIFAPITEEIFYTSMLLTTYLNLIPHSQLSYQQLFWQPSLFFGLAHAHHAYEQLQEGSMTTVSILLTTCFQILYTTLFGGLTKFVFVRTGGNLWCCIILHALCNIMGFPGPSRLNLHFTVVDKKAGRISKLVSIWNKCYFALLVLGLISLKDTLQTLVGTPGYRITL

Estrogen receptor = molecular target: T3, Estrogen receptor (Homo sapiens, UniProt P03372);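 note: potency for inhibiting coactivator peptide recruitment to the receptor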
T3 sequence (P03372 whole entry): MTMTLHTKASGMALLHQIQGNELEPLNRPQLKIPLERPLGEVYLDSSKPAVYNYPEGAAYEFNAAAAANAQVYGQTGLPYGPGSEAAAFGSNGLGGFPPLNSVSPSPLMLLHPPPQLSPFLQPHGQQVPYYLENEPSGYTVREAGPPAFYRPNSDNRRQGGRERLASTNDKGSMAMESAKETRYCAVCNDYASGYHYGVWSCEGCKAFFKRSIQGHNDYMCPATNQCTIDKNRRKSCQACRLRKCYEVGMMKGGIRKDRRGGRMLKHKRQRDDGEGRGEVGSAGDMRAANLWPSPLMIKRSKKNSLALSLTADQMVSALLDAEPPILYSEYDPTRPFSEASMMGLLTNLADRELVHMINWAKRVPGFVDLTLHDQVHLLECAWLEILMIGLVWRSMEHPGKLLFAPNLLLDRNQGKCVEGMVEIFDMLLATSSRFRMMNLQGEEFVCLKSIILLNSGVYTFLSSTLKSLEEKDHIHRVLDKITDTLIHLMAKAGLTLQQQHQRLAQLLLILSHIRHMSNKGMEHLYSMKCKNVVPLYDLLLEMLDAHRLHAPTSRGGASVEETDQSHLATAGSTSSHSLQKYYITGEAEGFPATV

[5] = molecular target: T4, Carboxy-terminal domain RNA polymerase II polypeptide A small phosphatase 1 (Homo sapiens, UniProt Q9GZU7); assay: CTDSP1 inhibitors, concentration-response, biochemical, absorbance readout, ultra-high-throughput screen actives (AID 540297); type: functional
T4 sequence (Q9GZU7 whole entry): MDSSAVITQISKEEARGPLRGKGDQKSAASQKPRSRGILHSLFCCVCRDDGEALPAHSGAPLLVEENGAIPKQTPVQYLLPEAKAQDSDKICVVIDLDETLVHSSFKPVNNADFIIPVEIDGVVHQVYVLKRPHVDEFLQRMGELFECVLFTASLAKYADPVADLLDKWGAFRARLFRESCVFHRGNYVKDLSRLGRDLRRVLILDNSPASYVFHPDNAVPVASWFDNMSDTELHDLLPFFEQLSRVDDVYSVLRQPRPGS

Vero [6] = assay: cells; type: functional, cell-based; details: Chlorocebus sabaeus
Vero [7] = assay: cells; type: functional; details: Chlorocebus sabaeus
cells = type: functional
[8] = Vero E6 cell cytotoxicity, dose response, cytotoxicity control for non-replicating M. tuberculosis project, secondary assay (AID 492998); type: functional, VeroE6; details: Vero C1008
[9] = THP-1 cell cytotoxicity, dose response, cytotoxicity control for non-replicating M. tuberculosis project (AID 489025); type: functional
Streptokinase A = molecular target: T5, Streptokinase A (Streptococcus pyogenes serotype M1, UniProt P10520); assay: viability-normalized secreted streptokinase activity reduction – plasminogen activation absorbance, OD405, dose response (AID 1914); type: functional, Streptococcus pyogenes M1 GAS;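 note: secreted streptokinase activity via plasminogen activation per viability signal from cell pellet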
T5 sequence (P10520 whole entry): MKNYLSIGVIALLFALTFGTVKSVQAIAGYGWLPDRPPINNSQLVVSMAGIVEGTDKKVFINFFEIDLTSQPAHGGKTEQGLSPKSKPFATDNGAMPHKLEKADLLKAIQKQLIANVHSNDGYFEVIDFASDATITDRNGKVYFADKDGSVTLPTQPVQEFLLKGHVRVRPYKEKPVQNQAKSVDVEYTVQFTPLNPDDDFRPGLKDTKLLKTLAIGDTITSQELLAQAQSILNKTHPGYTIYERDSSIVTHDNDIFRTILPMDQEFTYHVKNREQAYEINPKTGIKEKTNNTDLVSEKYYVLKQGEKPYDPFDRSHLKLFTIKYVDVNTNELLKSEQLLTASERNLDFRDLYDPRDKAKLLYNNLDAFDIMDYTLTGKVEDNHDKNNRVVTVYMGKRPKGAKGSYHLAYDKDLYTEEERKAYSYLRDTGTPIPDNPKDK

Streptococcus = assay: GAS UMAA2166 growth inhibition – luminescence, BacTiterGlo, counter-screen for streptokinase expression inhibitor project, dose response (AID 1915); type: functional, organism-based;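 note: potency for reduction of bacterial viability or growth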
[10] = tested on: Streptococcus sp. 'group A'; assay: Streptococcus pyogenes SK(-)GAS viability under kanamycin – luminescence, BacTiterGlo, confirmation, counter-screen for streptokinase expression inhibitor project, dose response (AID 1900); type: functional, organism-based
[11] = HEK-293T viability loss after treatment – luminescence, T-cell screen hits, cytotoxicity control for TCR NF-kB inhibitor project, dose response (AID 489026); type: functional, cell-based;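 note: cells exposed to compound about 14 hours before the viability readout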
[12] = intracellular Trypanosoma cruzi inhibitors in host cells – cell-based, plate reader, cherry-pick samples, set 3, dose response (AID 651818); type: functional;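 note: compounds incubated with infected cells for about four days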
[13] = molecular target: T6, Rac GTPase-activating protein 1 (Homo sapiens, UniProt Q9H0H5); assay: blockers of MgcRacGAP-driven Rac1 GTP hydrolysis – biochemical, ADP Hunter fluorescence, primary and confirmatory, confirmation (AID 624330); type: functional
T6 sequence (Q9H0H5 whole entry): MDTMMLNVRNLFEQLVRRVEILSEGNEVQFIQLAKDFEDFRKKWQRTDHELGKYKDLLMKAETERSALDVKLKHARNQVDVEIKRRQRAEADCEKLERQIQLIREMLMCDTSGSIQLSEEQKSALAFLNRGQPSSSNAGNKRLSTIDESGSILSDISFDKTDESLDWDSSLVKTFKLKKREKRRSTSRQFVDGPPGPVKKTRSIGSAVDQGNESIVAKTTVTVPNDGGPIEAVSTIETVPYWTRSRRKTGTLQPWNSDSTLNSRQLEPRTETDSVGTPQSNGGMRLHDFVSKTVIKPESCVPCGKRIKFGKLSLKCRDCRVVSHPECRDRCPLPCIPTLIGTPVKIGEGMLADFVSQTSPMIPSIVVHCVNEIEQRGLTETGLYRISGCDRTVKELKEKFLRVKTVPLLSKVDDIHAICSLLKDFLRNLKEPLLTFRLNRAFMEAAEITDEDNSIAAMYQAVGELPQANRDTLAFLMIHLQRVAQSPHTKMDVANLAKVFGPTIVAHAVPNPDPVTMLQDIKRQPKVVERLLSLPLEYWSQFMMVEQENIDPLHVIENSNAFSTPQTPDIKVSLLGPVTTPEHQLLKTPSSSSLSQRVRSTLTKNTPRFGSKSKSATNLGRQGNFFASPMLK

DNA dC->dU-editing enzyme APOBEC-3G, sequence (Q9HC16 whole entry): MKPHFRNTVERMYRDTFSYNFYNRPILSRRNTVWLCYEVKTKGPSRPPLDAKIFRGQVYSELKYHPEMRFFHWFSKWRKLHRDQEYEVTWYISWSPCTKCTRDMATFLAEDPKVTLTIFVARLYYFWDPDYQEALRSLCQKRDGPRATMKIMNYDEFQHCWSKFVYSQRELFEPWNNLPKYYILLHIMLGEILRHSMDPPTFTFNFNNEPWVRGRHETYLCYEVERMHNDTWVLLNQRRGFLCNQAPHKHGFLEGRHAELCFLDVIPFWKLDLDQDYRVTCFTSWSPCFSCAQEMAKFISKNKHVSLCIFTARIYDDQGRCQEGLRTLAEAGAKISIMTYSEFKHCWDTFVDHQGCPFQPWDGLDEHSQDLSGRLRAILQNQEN
DNA dC->dU-editing enzyme APOBEC-3A, sequence (P31941 whole entry): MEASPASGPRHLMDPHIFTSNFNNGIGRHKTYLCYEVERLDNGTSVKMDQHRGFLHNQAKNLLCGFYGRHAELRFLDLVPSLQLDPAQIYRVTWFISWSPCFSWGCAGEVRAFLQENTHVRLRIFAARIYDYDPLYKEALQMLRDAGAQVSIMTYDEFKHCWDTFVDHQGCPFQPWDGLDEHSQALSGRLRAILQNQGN
SUMO-activating enzyme, sequence (Q9UBE0 whole entry): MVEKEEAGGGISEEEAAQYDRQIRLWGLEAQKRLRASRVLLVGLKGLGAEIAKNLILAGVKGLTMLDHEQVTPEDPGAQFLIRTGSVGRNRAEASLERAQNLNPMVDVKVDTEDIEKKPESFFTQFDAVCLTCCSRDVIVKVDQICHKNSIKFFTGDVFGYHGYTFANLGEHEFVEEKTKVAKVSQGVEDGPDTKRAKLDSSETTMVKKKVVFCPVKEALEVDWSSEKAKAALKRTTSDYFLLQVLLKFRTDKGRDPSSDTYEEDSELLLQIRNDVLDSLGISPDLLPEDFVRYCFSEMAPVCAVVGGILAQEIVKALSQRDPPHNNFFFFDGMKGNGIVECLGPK
SUMO-activating enzyme, sequence (Q9UBT2 whole entry): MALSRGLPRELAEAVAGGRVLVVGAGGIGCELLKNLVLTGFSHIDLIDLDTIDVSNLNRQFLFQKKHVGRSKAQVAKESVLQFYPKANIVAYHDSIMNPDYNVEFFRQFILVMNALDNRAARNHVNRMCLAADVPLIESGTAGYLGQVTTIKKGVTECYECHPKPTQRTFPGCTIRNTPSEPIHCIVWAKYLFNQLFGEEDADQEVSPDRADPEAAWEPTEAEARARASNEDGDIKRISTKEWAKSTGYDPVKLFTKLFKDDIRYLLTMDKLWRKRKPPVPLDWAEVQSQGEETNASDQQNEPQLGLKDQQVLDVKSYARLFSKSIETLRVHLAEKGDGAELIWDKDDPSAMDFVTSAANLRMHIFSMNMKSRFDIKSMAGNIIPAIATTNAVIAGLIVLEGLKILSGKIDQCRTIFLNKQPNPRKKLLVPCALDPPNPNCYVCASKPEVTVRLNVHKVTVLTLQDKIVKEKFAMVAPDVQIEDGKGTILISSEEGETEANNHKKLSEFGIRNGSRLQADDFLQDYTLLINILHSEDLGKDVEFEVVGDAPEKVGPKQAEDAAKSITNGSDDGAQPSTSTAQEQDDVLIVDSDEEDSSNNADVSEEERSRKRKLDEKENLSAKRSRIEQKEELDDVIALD
Trypsin, sequence (P00761 whole entry): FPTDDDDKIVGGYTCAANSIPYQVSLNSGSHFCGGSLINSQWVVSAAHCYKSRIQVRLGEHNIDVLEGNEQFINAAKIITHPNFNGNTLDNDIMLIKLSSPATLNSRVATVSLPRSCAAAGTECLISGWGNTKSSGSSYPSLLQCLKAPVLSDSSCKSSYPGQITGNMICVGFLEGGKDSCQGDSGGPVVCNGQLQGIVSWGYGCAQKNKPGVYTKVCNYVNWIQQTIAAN

Clc1cccc(COn2c(-c3ccc(Cl)cc3Cl)nc3ncccc32)c1
CC50 [1]: 14.4 µM (active)
EC50 [2]: 5.96 µM (active)

Cc1cc(-c2nnc(S)n2-c2ccc(F)cc2)nn1C
IC50 [3]: > 100 µM (inactive)
IC50 [4]: 16.2 µM (active)

CCOc1cccc(CNCCO)c1OCc1ccc(Cl)cc1
EC50 [2]: 1.88 µM (active)

Nc1c(C(=O)Nc2ccc(Br)cc2)sc2nc(-c3ccco3)ccc12
IC50 (SUMO-activating enzyme): 22.8 µM (active)

Cc1c(Cc2ccccc2)c(=O)oc2c(C)c(OCC(=O)N3CCC(C(=O)O)CC3)ccc12
AC50 (Trypsin): 9.51 µM (active)
AC50 (CAAX prenyl protease 2): 10.7 µM (active)

O=C(Nc1ccc2nn(-c3ccccc3)nc2c1)c1ccc(Br)o1
IC50 (Estrogen receptor): > 50 µM (not active)
IC50 [5]: 3.62 µM (active)

COC(=O)C1=C(C)N(Cc2ccccc2)C(=S)N[C@H]1c1ccccc1
EC50 [2]: 5.96 µM (active)

O=c1c2ccccc2nc(/C=C/c2ccccc2O)n1-c1ccccc1O
CC50 [1]: 8.96 µM (active)
IC50 (Vero [6]): > 25 µM (active)
CC50 (Vero [7]): 20.4 µM (active)

COc1ccc(-c2nc(CC(=O)O)cs2)cc1OC
AC50 (Trypsin): 6.53 µM (active)
AC50 (CAAX prenyl protease 2): 29.7 µM (active)

Cc1ccc(CNC(=O)c2ccc([N+](=O)[O-])o2)cc1
IC50 (cells): 0.16 µM (active)
CC50 [8]: 5.6 µM (active)
CC50 [9]: 25.5 µM (active)
EC50 (Streptokinase A): 8.63 µM (active)
EC50 (Streptococcus): 32.1 µM (active)
EC50 [10]: 2.42 µM (active)

CCOc1ccc(S(=O)(=O)NCc2ccccn2)cc1NC(=O)c1ccccc1
IC50 [11]: > 80 µM (inactive)

CCOC(=O)c1ccccc1NS(=O)(=O)c1ccc(OCC)cc1
IC50 [11]: > 80 µM (inactive)

CC(NC(=O)OC(C)(C)C)C(=O)Oc1ccc2ccc(=O)oc2c1 (stereo not drawn)
IC50 (SUMO-activating enzyme): > 100 µM (inactive)

C=CCn1c(-c2ccc([N+](=O)[O-])cc2)n[nH]c1=S
IC50 [3]: > 100 µM (inactive)
IC50 [4]: 4.51 µM (active)

CC(OC(=O)CNC(=O)c1ccccc1F)C(=O)Nc1nc(-c2ccccc2)cs1 (stereo not drawn)
EC50 [2]: 1.5 µM (active)

CC(=O)/C(C#N)=C1\NC(=O)C(Cc2ccc(C)c(Cl)c2)S1 (stereo not drawn)
IC50 (Vero [6]): 6.72 µM (active)
CC50 (Vero [7]): 20.6 µM (active)

C[C@H](CO)N1C[C@H](C)[C@@H](CN(C)S(=O)(=O)c2ccc(Cl)cc2)Oc2c(NC(=O)Nc3ccccc3)cccc2C1=O
AC50 [12]: 6.84 µM (active)

C[C@@H]1CCCCO[C@@H](CN(C)CC2CCCCC2)[C@@H](C)CN([C@H](C)CO)C(=O)c2cc(NC(=O)Nc3cccc4ccccc34)ccc2O1
AC50 [12]: 0.757 µM (active)

Cc1ccc(S(=O)(=O)Nc2ccc3c(c2)CC(=O)N([C@H](C)CO)C[C@@H](C)[C@H](CN(C)Cc2ccccc2)O3)cc1
AC50 [12]: 1.79 µM (active)

Cc1cc(-c2nnc(S)n2/N=C/c2sccc2C)[nH]n1
IC50 [3]: > 100 µM (inactive)
IC50 [4]: 2.44 µM (active)
IC50 [13]: 74.9 µM (active)

Sc1nnc(COc2ccccc2)n1/N=C/c1ccco1
IC50 [3]: > 100 µM (inactive)
IC50 [4]: 3.38 µM (active)
